Reference: US4265912A, “Glaucine lactate salts” (priority 1979, dated 1981)
Where a name gives a salt, the structure may show the parent alone. Read-outs that look alike come from different tables or passages of the source.

How the values were obtained:
[1] = stability of syrup with continuous exposure to light in amber and flint glass bottles; type: physicochemical; settings: for assay after one month with continuous exposure to light, amber glass bottles / assay after one month with continuous exposure to light, flint glass bottles: ambient temperature, about 2000 Foot-candles, 24 hours/day, 43800 min; for assay after one month with continuous exposure to light, flint glass bottles: transparent (flint) glass
Protocol: In a procedure similar to that of Example 5, syrup formulations were prepared, placed in amber glass bottles and transparent (flint) glass bottles, and held under conditions of ambient temperature with continuous exposure to light. (About 2000 Foot-candles of combined fluorescent and incandescent light, for 24 hours/day.)

[2] = type: physicochemical; settings: syrup; for percent of original concentration retained after one month: 0.6 percent d,l-glaucine lactate, 0.2 percent codeine phosphate or d,l-glaucine hydrobromide, 43800 min; for Percentage Remaining after 3 months at 40° C. / Percentage Remaining after 3 months at 55° C. / Percentage Remaining after 3 months at Ambient: 131400 min
Protocol: Stability of d,l-glaucine lactate was examined in the syrup vehicle of Example 4.
Syrups containing codeine phosphate, 0.2 percent, contained 97.5, 104.5 or 100 percent, respectively, after one month at ambient temperature, 40° C. or 55° C. […] After three months, the percentage amount of antitussive agent remaining was as shown below

[3] = solubility in cough syrup vehicle; type: physicochemical; settings: cough syrup vehicle of Example 4
Protocol: A cough syrup vehicle formulation was prepared containing the following pharmaceutically-acceptable excipients: […]

[4] = tested on: guinea pigs (coughing, citric acid aerosol); experiment: antitussive activity, citric acid aerosol test, intraperitoneal injection; type: in vivo; settings: Cavia porcellus, ip
Protocol: Separate groups of guinea pigs were orally administered various doses of a test compound, or distilled water for a control group. One hour after oral dosing, the guinea pigs were exposed to a 5 percent aerosol of citric acid for a 10 minute test period. The number of cough responses produced during the last five minutes of exposure to the citric acid aerosol was recorded and the dosage effect to suppress coughing in 50 percent of the guinea pigs (ED50) was calculated. An antitussive effect was recorded for a guinea pig when its total number of coughs during the 5 minute test period were at least two standard deviation units below the mean number of coughs per guinea pig in the control group. […]; In an operation similar to that of Example 2, test compounds were administered to guinea pigs by intraperitoneal injection, with one group of guinea pigs receiving distilled water as a control. ED50 's were calculated for antitussive activity in the citric acid aerosol test as described in Example 2. […];

[5] = tested on: mouse (phenyl-p-quinone writhing); experiment: analgesic activity, phenyl-p-quinone mouse writhing test; type: in vivo; settings: oral, 30 minutes prior to phenyl-p-quinone challenge
Protocol: Test compounds were evaluated for analgesic activity in the phenyl-p-quinone mouse writhing test of Hendershot & Forsaith, J. Pharmacol. Exptl. Therap. 125(3) 237 (1959). The test compounds were administered orally 30 minutes prior to the phenyl-p-quinone challenge.

[6] = tested on: guinea pigs (coughing, citric acid aerosol); experiment: antitussive activity, citric acid aerosol test, oral; type: in vivo; settings: Cavia porcellus, 1 h, 5 percent citric acid aerosol one hour after dosing
Protocol: Separate groups of guinea pigs were orally administered various doses of a test compound, or distilled water for a control group. One hour after oral dosing, the guinea pigs were exposed to a 5 percent aerosol of citric acid for a 10 minute test period. The number of cough responses produced during the last five minutes of exposure to the citric acid aerosol was recorded and the dosage effect to suppress coughing in 50 percent of the guinea pigs (ED50) was calculated. An antitussive effect was recorded for a guinea pig when its total number of coughs during the 5 minute test period were at least two standard deviation units below the mean number of coughs per guinea pig in the control group. […];

mice = type: in vivo; settings: for stimulation and Straub tail: mouse, in vivo, 100 mg/kg; for mice jumping after naloxone: naloxone 100 mg/kg intraperitoneal after increasing doses on two consecutive days
Protocol: Physical dependency liability was evaluated in mice by the procedure of Saelens, et al., Arch. Int. Pharmacodynam, 190:213-218, 1971. In this procedure, mice are administered increasing doses of a test compound at intervals on two consecutive days. The last dosage on the second day is followed by intraperitoneal injection of the morphine antagonist, naloxone, at a dosage of 100 mg/kg, and the mice are observed for characteristic jumping behaviour indicative of opiate withdrawals or morphine antagonism.

[7] = stability of crystalline d,l-glaucine lactate on storage; type: physicochemical; settings: crystalline solid, 2 months storage at 40° C., read-out: percent of original assay retained, crystalline solid

| SMILES | ED50 [4] | assay after one month with continuous exposure to light, amber glass bottles [1] | assay after one month with continuous exposure to light, flint glass bottles [1] | percent of original concentration retained after one month ([2]; 40° C.) | percent of original concentration retained after one month ([2]; 55° C.) | percent of original concentration retained after one month ([2]; ambient temperature) | Percentage Remaining after 3 months at 40° C. ([2]; 40° C.) | Percentage Remaining after 3 months at 55° C. ([2]; 55° C.) | Percentage Remaining after 3 months at Ambient [2] | ED50 [5] | ED50 [6] | stimulation and Straub tail (mice) | mice jumping after naloxone (mice) | other results |
| --- | --- | --- | --- | --- | --- | --- | --- | --- | --- | --- | --- | --- | --- | --- |
| COc1cc2c(cc1OC)-c1c(OC)c(OC)cc3c1C(C2)N(C)CC3 (racemic) [d,l-glaucine hydrobromide] |  |  |  |  |  |  |  |  |  |  |  |  |  | assay after one month with continuous exposure to light, amber glass bottles ([1]; hydrobromide): 84%; assay after one month with continuous exposure to light, flint glass bottles ([1]; hydrobromide): 74.5%; percent of original concentration retained after one month ([2]; 40° C., hydrobromide): 96%; percent of original concentration retained after one month ([2]; 55° C., hydrobromide): 89.5%; percent of original concentration retained after one month ([2]; ambient temperature, hydrobromide): 99%; Percentage Remaining after 3 months at 40° C. ([2]; 40° C., listed as d,l-Glaucine . HBr, hydrobromide): 93.3%; Percentage Remaining after 3 months at 55° C. ([2]; 55° C., listed as d,l-Glaucine . HBr, hydrobromide): 91.4%; Percentage Remaining after 3 months at Ambient ([2]; listed as d,l-Glaucine . HBr, hydrobromide): 100.8%; solubility in cough syrup vehicle ([3]; hydrobromide): 0.3%; solubility in cough syrup vehicle per 5 milliliter dosage unit ([3]; hydrobromide): about 15 milligrams per 5 milliliter dosage unit |
| COc1ccc2c3c1O[C@H]1[C@@H](O)C=C[C@H]4[C@@H](C2)N(C)CC[C@@]341 [codeine phosphate] | 10.9 mg/kg | 100% | 100% | 104.5% | 100% | 97.5% | 101.1% | 88.4% | 101.3% | 21.2 mg/kg | 86.6 mg/kg | Straub tail and stimulation | 2 of 6 | stability in both types of container ([1]; amber and flint glass, light, one month): appeared stable in both types of container; total number of jumps after naloxone (mice; naloxone 100 mg/kg intraperitoneal): 23 jumps total |
| COc1cc2c(cc1OC)-c1c(OC)c(OC)cc3c1[C@H](C2)N(C)CC3 [d-glaucine hydrobromide] | 10 mg/kg |  |  |  |  |  |  |  |  | 34 mg/kg | 89 mg/kg |  |  |  |
| COc1cc2c(cc1OC)-c1c(OC)c(OC)cc3c1C(C2)N(C)CC3 (racemic) [d,l-Glaucine lactate (2:3)] |  |  |  |  |  |  |  |  |  |  |  | no Straub tail | no jumping behaviour in any of the ten mice |  |
| COc1cc2c(cc1OC)-c1c(OC)c(OC)cc3c1C(C2)N(C)CC3 (racemic) [d,l-glaucine lactate] | 7.9 mg/kg | 94% | 80.6% | 100.6% | 96.7% | 98.8% | 97.0% | 97.4% | 104.1% | 25.5 mg/kg | 63.4 mg/kg |  |  | solubility in cough syrup vehicle [3]: 2%; solubility in cough syrup vehicle per 5 milliliter dosage unit [3]: about 100 milligrams per 5 milliliter dosage unit; remaining at 1460 h [7]: > 99% |
